Measured values published in patent US5637619A, “Antitumor 2-aminocarbonyl-1, 2-bis(methylsulfonyl)-1-(substituted)hydrazines” (Yale University, priority 1995, dated 1997).
“Also recorded” adds a separate entry of the source.

Test system: L1210 leukemia
Experiment: L1210 leukemia survival time in mice (ip implanted)
Assay type: in vivo, mice (CD2F1)
Settings: for %T/C (average survival time treated/control × 100): cures not included
Procedure: Leukemia L1210 cells were obtained from the Frederick Cancer Research Facility, Division of Cancer Treatment Tumor Repository of the National Cancer Institute, and were maintained by serial passage in tissue culture. Every 8 weeks, tumor cells were injected intraperitoneally into five donor CD2 F1 mice 8- to 10- weeks of age and were allowed to grow for 7 days. The peritoneal fluid was withdrawn and the suspension was centrifuged for 5 min at 1600 g. The supernatant was decanted and 10^5 cells/mL were seeded into 10 mL of RPMI 1640 medium supplemented with 10% fetal bovine serum and 1% L-glutamine, and once again maintained in culture. To assay for antineoplastic activity, 0.1 mL of the cell suspension containing 10^5 L1210 leukemia cells was injected ip into each recipient mouse. Test compounds were administered over a wide range of dosage levels, beginning 24 h after tumor implantation, and continued once daily for 6 consecutive days. All drugs were administered ip as a solution in 100% dimethylsulfoxide (DMSO), in a volume not exceeding 0.025 mL. […] Mice were weighed during the course of the experiments, and the percentage change in body weight from onset to termination of therapy was used as an indication of drug toxicity. Determination of the sensitivity of neoplasms to these agents was based upon the prolongation of survival time afforded by the drug treatments.
^a Administered ip once daily for six consecutive days, beginning 24 hours after tumor implantation, with 5-10 mice being used per group. ^b Average percent change in body weight from onset to termination of therapy. ^c % T/C=average survival time of treated/control mice×100; cures (>60-day survivors) are listed separately and are not included in this calculation.

CS(=O)(=O)N(CCCl)N(C(=O)NCCCl)S(C)(=O)=O [Compound III, 1,2-bis(methylsulfonyl)-1-(2-chloroethyl)-2-(2-chloroethyl)aminocarbonylhydrazine]
% 60 Day Survivors (cures) (10 mg/kg ip once daily × 6): 100% | % 60 Day Survivors (cures) (15 mg/kg ip once daily × 6): 80% | %T/C (average survival time treated/control × 100) (15 mg/kg ip once daily × 6): 216% | % 60 Day Survivors (cures) (20 mg/kg ip once daily × 6): 80% | %T/C (average survival time treated/control × 100) (20 mg/kg ip once daily × 6): 239% | antileukemic activity / therapeutic potential (in words) (qualitative, L1210 leukemia in mice): One of the most active and potent compounds in the series; also recorded: much better therapeutic potential than the amino acid ester derivatives
